From US20160145247A1, “Aminomethyl-Biaryl Derivatives Complement Factor D inhibitors and uses thereof” (NOVARTIS AG, priority 2013, published 2016)

Target: T1, factor D (Homo sapiens, UniProt P00746)
T1 construct: made in house; host or cells: E. coli
Assay: factor D inhibition assay of Biological Example 2
Format: biochemical

T1 sequence (P00746 26-253): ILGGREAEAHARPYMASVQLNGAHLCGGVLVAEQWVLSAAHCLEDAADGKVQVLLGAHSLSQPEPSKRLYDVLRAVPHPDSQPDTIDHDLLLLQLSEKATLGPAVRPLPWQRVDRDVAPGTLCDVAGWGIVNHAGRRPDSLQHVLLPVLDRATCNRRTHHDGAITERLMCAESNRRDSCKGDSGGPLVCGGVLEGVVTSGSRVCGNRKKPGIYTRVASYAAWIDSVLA

Row | SMILES | IC50
1 | CCC[C@@H](N)c1cccc(-c2cc(COc3ccccc3CC(=O)O)cc(-c3ccccc3)c2)c1F [Example 200-B, (R)-2-(2-((3-(1-aminobutyl)-2-fluoro-[1,1′:3′,1″-terphenyl]-5′-yl)methoxy)phenyl)acetic acid] | 22 nM
2 | CCC[C@@H](N)c1cccc(-c2cc(COc3ccccc3CC(=O)O)cc(NCCOC)c2)c1 [Example 201, (R)-2-(2-((3′-(1-Aminobutyl)-5-((2-methoxyethyl)amino)-[1,1′-biphenyl]-3-yl)methoxy)phenyl)acetic acid] | 113 nM
3 | CCC[C@@H](N)c1cccc(-c2cc(COc3ccccc3CC(=O)O)cc(C3CC3)c2)c1F [Example 202-B, (R)-2-(2-((3′-(1-Aminobutyl)-5-cyclopropyl-2′-fluoro-[1,1′-biphenyl]-3-yl)methoxy)phenyl)acetic acid] | 33 nM
4 | CCC[C@@H](N)c1cccc(-c2cc(COc3ccccc3CC(=O)O)cc(-c3cnn(C)c3)c2)c1F [Example 203, (R)-2-(2-((3′-(1-Aminobutyl)-2′-fluoro-5-(1-methyl-1H-pyrazol-4-yl)-[1,1′-biphenyl]-3-yl)methoxy)phenyl)acetic acid] | 54 nM
5 | CNC(c1cc(COc2ccccc2CC(=O)O)cc(-c2cccc(CN)c2)c1)C(F)(F)F (stereo not drawn) [Example 208-A] | 19 nM
6 | CN(C)C(c1cc(COc2ccccc2CC(=O)O)cc(-c2cccc(CN)c2)c1)C(F)(F)F (stereo not drawn) [Example 208-B] | 27 nM
7 | NCc1cccc(-c2cc(COc3ccccc3CC(=O)O)cc(C(Nc3ccccc3)C(F)(F)F)c2)c1 (stereo not drawn) [Example 208-C] | 6 nM
8 | NCc1cccc(-c2cc(COc3ccccc3CC(=O)O)cc(C(NC(=O)c3ccccc3)C(F)(F)F)c2)c1 (stereo not drawn) [Example 208-D] | 4 nM
9 | NCc1cccc(-c2cc(CNCC(F)(F)F)cc(COc3ccccc3CC(=O)O)c2)c1 [Example 208-E] | 3 nM
10 | CC(NCc1cc(COc2ccccc2CC(=O)O)cc(-c2cccc(CN)c2)c1)C(F)(F)F (stereo not drawn) [Example 208-F] | 9 nM
11 | CN(Cc1cc(COc2ccccc2CC(=O)O)cc(-c2cccc(CN)c2)c1)CC(F)(F)F [Example 208-G] | 6 nM
12 | Cn1cc(-c2cc(COc3ccccc3CC(=O)O)cc(-c3cccc(CN)c3)c2)cn1 [Example 208-H] | 4 nM
13 | NCc1cccc(-c2cc(COc3ccccc3CC(=O)O)cc(-c3cc4ccccc4[nH]3)c2)c1 [Example 209-A] | 3 nM
14 | NCc1cccc(-c2cc(COc3ccccc3CC(=O)O)cc(-c3ccn[nH]3)c2)c1 [Example 209-B] | 4 nM
15 | CC(C)n1cc(-c2cc(COc3ccccc3CC(=O)O)cc(-c3cccc(CN)c3)c2)cn1 [Example 209-C] | 5 nM
16 | CC(C)Cn1cc(-c2cc(COc3ccccc3CC(=O)O)cc(-c3cccc(CN)c3)c2)cn1 [Example 209-D] | 4 nM
17 | COCCn1cc(-c2cc(COc3ccccc3CC(=O)O)cc(-c3cccc(CN)c3)c2)cn1 [Example 209-E] | 5 nM
18 | Cc1cc(COc2ccccc2CC(=O)O)cc(-c2cccc([C@@H](C)N)c2F)c1 [Example 210-C, (R)-2-(2-((3′-(1-aminoethyl)-2′-fluoro-5-methyl-[1,1′-biphenyl]-3-yl)methoxy)phenyl)acetic acid] | 12 nM
19 | C[C@@H](N)c1cccc(-c2cc(COc3ccccc3CC(=O)O)c3cn[nH]c3c2)c1F [Example 211-C] | 9 nM
20 | C[C@@H](N)c1cccc(-c2cc(COc3ccccc3CC(=O)O)cc(OCc3ccccn3)c2)c1F [Example 213, (R)-2-(2-((3′-(1-Aminoethyl)-2′-fluoro-5-(pyridin-2-ylmethoxy)-[1,1′-biphenyl]-3-yl)methoxy)phenyl)acetic acid] | 5 nM
21 | C[C@@H](N)c1cccc(-c2cc(COc3ccccc3CC(=O)O)cc(OCCN3CCOCC3)c2)c1F [Example 214-A] | 10 nM
22 | C[C@@H](N)c1cccc(-c2cc(COc3ccccc3CC(=O)O)cc(OCc3nccs3)c2)c1F [Example 214-B] | 5 nM

Row | SMILES | IC50
23 | C[C@@H](N)c1cccc(-c2cc(COc3ccccc3CC(=O)O)cc(OCCF)c2)c1F [Example 214-C] | 8 nM
24 | C[C@@H](N)c1cccc(-c2cc(COc3ccccc3CC(=O)O)cc(OCC3CCOCC3)c2)c1F [Example 214-D] | 18 nM
25 | C[C@@H](N)c1cccc(-c2cc(COc3ccccc3CC(=O)O)cc(OCc3ccn(C)n3)c2)c1F [Example 214-E] | 8 nM
26 | C[C@@H](N)c1cccc(-c2cc(COc3ccccc3CC(=O)O)cc(OCc3ccncc3)c2)c1F [Example 214-F] | 3 nM
27 | C[C@@H](N)c1cccc(-c2cc(COc3ccccc3CC(=O)O)cc(OCCN3CCCC3)c2)c1F [Example 214-G] | 22 nM
28 | C[C@@H](N)c1cccc(-c2cc(COc3ccccc3CC(=O)O)cc(OCC3CCCC3)c2)c1F [Example 214-H] | 700 nM
29 | COc1cc(COc2ccccc2CC(=O)O)cc(-c2cccc([C@@H](C)N)c2F)c1 [Example 214-I] | 7 nM
30 | C[C@@H](N)c1cccc(-c2cc(COc3ccccc3CC(=O)O)cc(OCc3ccncn3)c2)c1F [Example 214-J] | 9 nM
31 | C[C@@H](N)c1cccc(-c2cc(COc3ccccc3CC(=O)O)cc(OCc3ncn(C)n3)c2)c1F [Example 214-K] | 15 nM
32 | C[C@@H](N)c1cccc(-c2cc(COc3ccccc3CC(=O)O)cc(OCc3cccnc3)c2)c1F [Example 214-L] | 12 nM
33 | C[C@H](N)c1cccc(-c2cc(COc3ccccc3CC(=O)O)cc(OCc3ccccn3)c2)c1F [Example 214-M] | 20 nM
34 | C[C@H](N)c1cccc(-c2cc(COc3ccccc3CC(=O)O)cc(OCc3nccs3)c2)c1F [Example 214-N] | 5 nM
35 | C[C@H](N)c1cccc(-c2cc(COc3ccccc3CC(=O)O)cc(OCCF)c2)c1F [Example 214-O] | 71 nM
36 | C[C@H](N)c1cccc(-c2cc(COc3ccccc3CC(=O)O)cc(OCc3cncn3C)c2)c1F [Example 214-P] | 14 nM
37 | C[C@@H](N)c1cccc(-c2cc(COc3ccccc3CC(=O)O)cc(OCc3cncn3C)c2)c1F [Example 214-Q] | 10 nM
38 | C[C@@H](N)c1cccc(-c2cc(O)cc(COc3ccccc3CC(=O)O)c2)c1F [Example 214-R] | 7 nM
39 | NC(CF)c1cccc(-c2cccc(COc3ccccc3CC(=O)O)c2)c1F (stereo not drawn) [Example 215, 2-(2-((3′-(1-amino-2-fluoroethyl)-2′-fluoro-[1,1′-biphenyl]-3-yl)methoxy)phenyl)acetic acid] | 8 nM
40 | C[C@@H](N)c1cccc(-c2cc(NCC3CC3)cc(N(C)Cc3ccccc3CC(=O)O)c2)c1F [Example 216-AA] | 32 nM
41 | C[C@@H](N)c1cccc(-c2cc(NC[C@@H]3CCCO3)cc(N(C)Cc3ccccc3CC(=O)O)c2)c1F [Example 216-AB] | 55 nM
42 | C[C@@H](N)c1cccc(-c2cc(NCC(F)F)cc(N(C)Cc3ccccc3CC(=O)O)c2)c1F [Example 216-AC] | 33 nM
43 | C[C@@H](N)c1cccc(-c2cc(CNC3CC3)cc(COc3ccccc3CC(=O)O)c2)c1F [Example 216-AD] | 20 nM
44 | C[C@@H](N)c1cccc(-c2cc(COc3ccccc3CC(=O)O)cc(CN3CCOCC3)c2)c1F [Example 216-AE] | 53 nM

Row | SMILES | IC50
45 | C[C@@H](N)c1cccc(-c2cc(CNc3ccn(C)n3)cc(COc3ccccc3CC(=O)O)c2)c1F [Example 216-AF] | 16 nM
46 | C[C@@H](N)c1cccc(-c2cc(CNC3CCOC3)cc(COc3ccccc3CC(=O)O)c2)c1F (stereo partly drawn) [Example 216-AG] | 24 nM
47 | C[C@@H]1CN(Cc2cc(COc3ccccc3CC(=O)O)cc(-c3cccc([C@@H](C)N)c3F)c2)C[C@H](C)O1 [Example 216-AH] | 90 nM
48 | C[C@@H](N)c1cccc(-c2cc(COc3ccccc3CC(=O)O)cc(CN3CCCOCC3)c2)c1F [Example 216-AI] | 24 nM
49 | C[C@@H](N)c1cccc(-c2cc(COc3ccccc3CC(=O)O)cc(CN3CCCC3)c2)c1F [Example 216-AJ] | 460 nM
50 | N[C@H](CF)c1cccc(-c2cc(COc3ccccc3CC(=O)O)cc(NCC3CC3)c2)c1F [Example 216-A] | 7 nM
51 | N[C@@H](CF)c1cccc(-c2cc(COc3ccccc3CC(=O)O)cc(NCC3CC3)c2)c1F [Example 216-B] | 56 nM
52 | C[C@H](N)c1cccc(-c2cc(COc3ccccc3CC(=O)O)cc(NCC3CCCC3)c2)c1F [Example 216-C] | 6 nM
53 | C[C@@H](N)c1cccc(-c2cc(COc3ccccc3CC(=O)O)cc(NCC3CCCC3)c2)c1F [Example 216-D] | 2 nM
54 | NC(CF)c1cccc(-c2cc(COc3ccccc3CC(=O)O)cc(NCC3CCCC3)c2)c1F (stereo not drawn) [Example 216-E] | 6 nM
55 | C[C@@H](N)c1cccc(-c2cc(COc3ccccc3CC(=O)O)cc(N(C)CC3CCCC3)c2)c1F [Example 216-F] | 31 nM
56 | C[C@@H](N)c1cccc(-c2cc(COc3ccccc3CC(=O)O)cc(N(C)CC3CCCO3)c2)c1F (stereo partly drawn) [Example 216-G] | 7 nM
57 | C[C@@H](N)c1cccc(-c2cc(COc3ccccc3CC(=O)O)cc(N(C)C[C@@H]3CCCO3)c2)c1F [Example 216-H] | 5 nM
58 | C[C@@H](N)c1cccc(-c2cc(COc3ccccc3CC(=O)O)cc(N(C)C[C@H]3CCCO3)c2)c1F [Example 216-I] | 13 nM
59 | CCN(C[C@@H]1CCCO1)c1cc(COc2ccccc2CC(=O)O)cc(-c2cccc([C@@H](C)N)c2F)c1 [Example 216-J] | 3 nM
60 | C[C@@H](N)c1cccc(-c2cc(COc3ccccc3CC(=O)O)cc(NCCF)c2)c1F [Example 216-K] | 2 nM
61 | C[C@@H](N)c1cccc(-c2cc(COc3ccccc3CC(=O)O)cc(N(C)CCF)c2)c1F [Example 216-L] | 24 nM
62 | C[C@@H](N)c1cccc(-c2cc(COc3ccccc3CC(=O)O)cc(NCC(F)F)c2)c1F [Example 216-M] | 13 nM
63 | C[C@@H](N)c1cccc(-c2cc(COc3ccccc3CC(=O)O)cc(N(C)CC(F)F)c2)c1F [Example 216-N] | 24 nM
64 | C[C@H](N)c1cccc(-c2cc(CCc3ccncc3)cc(COc3ccccc3CC(=O)O)c2)c1F [Example 216-O] | 78 nM
65 | C[C@@H](N)c1cccc(-c2cc(CCc3ccncc3)cc(COc3ccccc3CC(=O)O)c2)c1F [Example 216-P] | 13 nM
66 | NC(CF)c1cccc(-c2cc(CCc3ccncc3)cc(COc3ccccc3CC(=O)O)c2)c1F (stereo not drawn) [Example 216-Q] | 12 nM
